Results on nine compounds are retold here after patent US5747477A, “Azo derivatives of 5-aminosalicylic acid” (priority 1995, dated 1998).

In series [1] the test system is platelet aggregation induced by PAF. Briefly: Test 1-Inhibition of platelet aggregation induced by PAF (C18-PAF, 15 nM). The conditions noted are these: rabbit platelet rich plasma, 15 nM C18-PAF, read-out: IC50 (concentration of drug required to inhibit platelet aggregatory response by 50%). In kind it is cell-based, male New Zealand rabbits. The method, then:
Test 1-Inhibition of platelet aggregation induced by PAF.
Platelet rich plasma (PRP) was prepared by centrifuging the blood at 250xg for 10 min. at 4° C. PRP was diluted with platelet-poor plasma (PPP) obtained by further centrifuging at 3000xg for 10 min. The platelet count was adjusted to 3×10^5 cells/mm^3.

The test system of series [2] is PAF-induced hypotension in normotensive rats. Put plainly: Test 2- Inhibition of PAF-induced hypotension in normotensive rats. In kind it is in vivo, Male Sprague-Dawley rats. As to conditions: intravenous, 3 min. before PAF (0.5 μg/Kg); for ED50: Rattus norvegicus, 0.05 h, read-out: ID50 (dose of test compound required to inhibit hypotension by 50%). The protocol:
Test 2- Inhibition of PAF-induced hypotension in normotensive rats.
Male Sprague-Dawley rats, weighing 180-220 g, were anesthetized with sodium pentobarbital (50 mg/Kg i.p.). Blood pressure was recorded from the left carotid artery using a Statham pressure transducer coupled to a Beckman R611 recorder. Right and left femoral veins were catheterized to inject test compounds and PAF (0.5 μg/Kg). Test compounds were administered by intravenous injection (1 mL/Kg, dissolved in saline) 3 min. before PAF.
Blood pressure was monitored and percent inhibition of PAF-induced hypotension with respect to controls was calculated.

Another series concerns ulcerative colitis. The conditions noted are these: cited from earlier work; for active moiety in ulcerative colitis: Azad Khan et al., Lancet 1977.
For series [3] the following is noted: after absorption from the colon; cited from earlier work.

pIC50: −log10 of the molar value. Where two headings read alike, the source gives them in different places.

Turning to `Cc1nc2cnccc2n1CC1CCN(C(=O)CC(C)(C)c2ccc(N)cc2)CC1` [A, 1-[[1-[3-(4-Aminophenyl)-3-methylbutanoyl]-4-piperidyl]methyl]-1H-2-methylimidazo[4,5-c]pyridine], in series [1] (Oryctolagus cuniculus), the pIC50 is 7.72. The ED50 in series [2] came out at 0.099 mg/kg.
As for `Cc1nc2cnccc2n1CC1CCN(C(=O)/C=C(/c2ccccc2)c2ccc(N)cc2)CC1` [B, cis-1-[[1-[3-(4-Aminophenyl)-3-phenylpropenoyl]-4-piperidyl]methyl]-1H-2-methylimidazo[4,5-c]pyridine], in series [1], the pIC50 was 7.74. Further, the “ID50 (dose of test compound required to inhibit hypotension by 50%)” value in series [2] turned out to be 0.029 mg/kg.
The matching figures for `Cc1nc2cnccc2n1CC1CCN(C(=O)/C=C(\c2ccccc2)c2ccc(N)cc2)CC1` [C, trans-1-[[1-[3-(4-Aminophenyl)-3-phenylpropenoyl]-4-piperidyl]methyl]-1H-2-methylimidazo[4,5-c]pyridine]: 8.30 and 0.01 to 0.025 mg/kg.
Take `Nc1ccc(O)c(C(=O)O)c1` [Compound 5-ASA, 5-aminosalicylic acid]: the “active moiety in ulcerative colitis” value in the series with ulcerative colitis is recorded as “in ulcerative colitis the active moiety is 5-ASA”.
In the case of `Cc1nc2cnccc2n1CC1CCN(C(=O)CN(c2ccccc2)S(=O)(=O)c2ccc(N)cc2)CC1` [D], in series [1] (Oryctolagus cuniculus), the pIC50 is 7.12. Besides, the ED50 in series [2] is 0.088 mg/kg.
The matching figures for `CCOC(=O)[C@H](CC(C)C)N(C(=O)c1ccc(N)cc1)S(=O)(=O)c1ccc(Cn2c(C)nc3cnccc32)cc1` [E, N-(4-Aminobenzoyl)-N-[4-(1H-2-methylimidazo[4,5-c]pyridylmethyl)phenylsulfonyl]-L-leucine ethyl ester]: 7.52 and 0.15 mg/kg.
For `CCOC(=O)[C@H](CC(C)C)N(Cc1ccc(N)cc1)S(=O)(=O)c1ccc(Cn2c(C)nc3cnccc32)cc1` [F, N-(4-Aminobenzyl)-N-[4-(1H-2-methylimidazo[4,5-c]pyridylmethyl)-phenylsulfonyl]-L-leucine ethyl ester], in that order: 7.92 and 0.033 mg/kg.
`CCOC[C@H](CC(C)C)N(Cc1ccc(N)cc1)S(=O)(=O)c1ccc(Cn2c(C)nc3cnccc32)cc1` [G, N-(4-Aminobenzyl)-N-[(S)-1-isobutyl-2-ethoxyethyl]-4-(1H-2-methylimidazo[4,5-c]pyridylmethyl)phenylsulfonamide]: the pIC50 in series [1] (Oryctolagus cuniculus) was 7.80. Further, the ED50 in series [2] was found to be 0.14 mg/kg.
Consider `Nc1ccc(S(=O)(=O)Nc2ccccn2)cc1` [Sulfapyridine, sulfapyridine], for which the metabolism and excretion entry in series [3] is “metabolised and excreted in the urine”. In addition, in the series with ulcerative colitis, the “active moiety in ulcerative colitis” value was “acts only as a carrier”. Also, the “side effects of sulfasalazine ascribed to the moiety” value with ulcerative colitis (Das et al., New Engl. J. Med. 1973) is “Most of the side effects of sulfasalazine have been ascribed to the sulfapyridine moiety”.
